Where “and” joins values, the source holds several entries; their conditions need not be identical. Identical values can stand only once. Ends that are not written are not given here.

Consider 14 molecules from US20020076728A1, “Engineering affinity ligands for macromolecules” (priority 1997, published 2002).

For data set [1], the target named is tPA (Homo sapiens, UniProt P00750). Description: 15-amino acid segment of #109 bound to chromatographic support, tPA binding. The note with it: bound to a chromatographic support; initial studies. The source says: As noted above, almost all of the variegation in amino acid positions used in building the CMTI library occurred between two cyteines at positions 3 and 10 of CMTI-I (see Table 3). In the parental CMTI protein, these cysteines form disulfide bonds with other cysteine residues elsewhere in the protein (see SEQ ID NO: 1), however with the successful isolation of affinity ligands from the CMTI library, a secondary library was conceptualized which was based on variegating a truncated 15-amino acid segment of the isolate #109 (see amino acids 1-15 of SEQ ID NO: 12). If the C3 and C10 cysteines of these members formed a disulfide bond, then a constrained loop having tPA binding properties might be obtained.

Data set [2] has as its system M13 phage. Kind of data set: Stability of M13 in various organic solvents (phage survival). The note with it: for surviving phage: incubation for 20 minutes with 80% solvent. The source says: Thus, if phage display libraries are used, it is of interest to determine whether organic solvents disrupt the phage.
The conditions of data set [3]: side-chain ionizable group of the amino acid type in proteins; cited from earlier work.
Data set [4] addresses T1, recombinant human tissue-type plasminogen activator (human, UniProt P00750 36-562).
T1 construct: Bought; immobilised on Reacti-Gel agarose beads for phage work, in solution for column tests; also called tPA
Description: peptide bound to a chromatographic support.

Where [5] appears, read: 10% solvent by volume in Luria broth.
Setting [6] is: 20% solvent by volume in Luria broth.
Setting [7] is: 40% solvent by volume in Luria broth.
Setting [8] is: 80% solvent by volume in Luria broth.
Where [9] appears, read: 2% solvent by volume in Luria broth.
[10] abbreviates: 5% solvent by volume in Luria broth.

T1 sequence (P00750 36-562 limits assumed): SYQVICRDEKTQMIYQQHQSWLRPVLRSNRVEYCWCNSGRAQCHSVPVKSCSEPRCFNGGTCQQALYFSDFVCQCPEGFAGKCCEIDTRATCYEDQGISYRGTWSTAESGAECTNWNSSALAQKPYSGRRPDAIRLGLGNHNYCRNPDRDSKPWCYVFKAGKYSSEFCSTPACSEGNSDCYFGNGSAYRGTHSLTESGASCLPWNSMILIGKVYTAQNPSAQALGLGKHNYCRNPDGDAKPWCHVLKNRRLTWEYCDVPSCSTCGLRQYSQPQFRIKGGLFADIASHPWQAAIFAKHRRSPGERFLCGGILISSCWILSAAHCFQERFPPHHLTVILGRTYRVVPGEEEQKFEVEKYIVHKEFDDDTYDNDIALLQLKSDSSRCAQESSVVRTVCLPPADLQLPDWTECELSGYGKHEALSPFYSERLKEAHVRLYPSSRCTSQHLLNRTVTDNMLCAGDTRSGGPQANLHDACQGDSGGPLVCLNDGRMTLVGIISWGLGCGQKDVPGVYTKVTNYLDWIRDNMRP
tPA, sequence (P00750 36-562): as the sequence (P00750 36-562 limits assumed) above

On to “15-amino acid segment derived from affinity ligand isolate #109: truncated 15-amino acid segment of isolate #109 (amino acids 1-15 of SEQ ID NO: 12), C3-C10 disulfide loop (RLCPKTDLGCMKDSD; also: C3-C10 disulfide stated only as a possibility)”, for which the “binding of immobilized loop to tPA” value in data set [1] was “bound to tPA”.

Turning to `CC#N` [ACN, acetonitrile], the “Survival after 20 min. (%)” value was 84% in data set [2] (setting [5]); 80% in data set [2] (setting [6]); 92% in data set [2] (setting [7]); 30% and 37% in data set [2] (setting [8]). Moreover, the “Survival after 60 min. (%)” value in data set [2] (setting [5]) was 74%; in data set [2] (setting [6]), 91%; in data set [2] (setting [7]), 89%; in data set [2] (setting [8]) it was 8% and 3%.

For the molecule `N=C(N)NCCC[C@H](N)C(=O)O` [Arg], the pKa range in data set [3] was 12.0.

`N[C@@H](CC(=O)O)C(=O)O` [Asp, aspartic acid]: the pKa range in data set [3] is reported as 3.9-4.0.

Turning to `N[C@@H](CS)C(=O)O` [Cys (not in disulfide)], the pKa range in data set [3] is 9.0-9.5.

For the molecule `CN(C)C=O` [DMF, dimethylformamide], in data set [2], the surviving phage result is given as “no surviving phage”.

Regarding `C[S+](C)[O-]` [DMSO, dimethylsulfoxide], the “Survival after 20 min. (%)” value in data set [2] (setting [9]) is on record as 84%; in data set [2] (setting [10]) it was 68%; in data set [2] (setting [5]), 96%; in data set [2] (setting [6]), 73%; in data set [2] (setting [8]) it was 1%. Moreover, the “Survival after 60 min. (%)” value is on record as 89% in data set [2] (setting [9]); 86% in data set [2] (setting [10]); 86% in data set [2] (setting [5]); 82% in data set [2] (setting [6]); >1% in data set [2] (setting [8]).

For `CCO` [EtOH, ethanol], the surviving phage result in data set [2] is listed as “no surviving phage”.

As to `N[C@@H](CCC(=O)O)C(=O)O` [Glu], the pKa range in data set [3] is recorded as 4.3-4.5.

For `N[C@@H](Cc1c[nH]cn1)C(=O)O` [His, Histidine], in data set [3], the pKa range was 6.0-7.0.

For the molecule `CC(C)O` [IPA, isopropyl alcohol], in data set [2], the surviving phage result is listed as “no surviving phage”.

Turning to `NCCCC[C@H](N)C(=O)O` [Lys], in data set [3], the pKa range was 10.4-11.1.

For `CO` [MeOH, methanol], the “Survival after 20 min. (%)” value in data set [2] (setting [5]) is on record as 110%; in data set [2] (setting [6]) it was 93%; in data set [2] (setting [7]) it was 92%. For the same molecule, the “Survival after 60 min. (%)” value is 80% in data set [2] (setting [5]), 84% in data set [2] (setting [6]) and 84% in data set [2] (setting [7]).

B1: 15-amino acid segment derived from affinity ligand isolate #109 (peptide)
peptide: RLCPKTDLGCMKDSD
modifications: also: C3-C10 disulfide stated only as a possibility
notes: also called truncated 15-amino acid segment of the isolate #109; C3-C10 loop
For the molecule B1, in data set [4], the binding result is recorded as “binds”.
